Test results from BindingDB's records for doi:10.1021/acs.jmedchem.7b00876 (University of Wisconsin-Madison, 2017).

Target: T1, Parathyroid hormone/parathyroid hormone-related peptide receptor (Homo sapiens, UniProt Q03431)
T1 sequence (Q03431 whole entry): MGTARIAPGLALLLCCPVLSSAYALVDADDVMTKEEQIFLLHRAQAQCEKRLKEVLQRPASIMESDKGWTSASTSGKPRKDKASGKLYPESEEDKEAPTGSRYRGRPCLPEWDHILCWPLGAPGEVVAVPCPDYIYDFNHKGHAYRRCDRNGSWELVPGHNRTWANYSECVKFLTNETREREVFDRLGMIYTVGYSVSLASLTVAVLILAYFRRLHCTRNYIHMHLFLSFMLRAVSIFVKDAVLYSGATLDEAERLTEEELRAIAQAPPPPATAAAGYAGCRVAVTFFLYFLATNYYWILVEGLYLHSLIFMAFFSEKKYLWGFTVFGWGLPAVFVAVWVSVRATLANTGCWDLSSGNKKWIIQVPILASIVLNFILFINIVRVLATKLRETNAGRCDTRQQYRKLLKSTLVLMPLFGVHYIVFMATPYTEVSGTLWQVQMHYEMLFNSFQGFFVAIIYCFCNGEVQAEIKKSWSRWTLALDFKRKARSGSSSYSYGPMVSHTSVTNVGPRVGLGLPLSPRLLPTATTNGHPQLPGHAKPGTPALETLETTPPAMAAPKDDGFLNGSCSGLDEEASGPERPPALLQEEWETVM
Experiment: Agonist activity at human PTH1 receptor expressed in human GP2.3 cells assessed as induction of cAMP after 12 to 20 mins by luciferase reporter gene assay

EC50: 0.65 nM
Compound: CC[C@H](C)[C@H](NC(=O)[C@H](CC(C)C)NC(=O)[C@H]1CNC[C@@H]1NC(=O)[C@H](Cc1c[nH]cn1)NC(=O)[C@H](CC(C)C)NC(=O)[C@H](Cc1ccccc1)NC(=O)[C@H]1CNC[C@@H]1NC(=O)[C@H](CCCNC(=N)N)NC(=O)[C@H](CCCNC(=N)N)NC(=O)[C@H](CCCNC(=N)N)NC(=O)[C@H]1CCC[C@@H]1NC(=O)[C@H](CC(=O)O)NC(=O)[C@H](CCC(N)=O)NC(=O)[C@@H](NC(=O)[C@H]1CCC[C@@H]1NC(=O)[C@H](CCCCN)NC(=O)CNC(=O)[C@H](CCCCN)NC(=O)[C@H](CC(=O)O)NC(=O)[C@H](Cc1c[nH]cn1)NC(=O)[C@H](CC(C)C)NC(=O)[C@H](CC(C)C)NC(=O)[C@H](CCC(N)=O)NC(=O)[C@H](Cc1c[nH]cn1)NC(=O)[C@H](CCC(=O)O)NC(=O)[C@H](CO)NC(=O)[C@@H](NC(=O)[C@H](C)N)C(C)C)[C@@H](C)CC)C(=O)N[C@@H](C)C(=O)N[C@H]1CCC[C@@H]1C(=O)N[C@H](C(=O)N[C@@H](Cc1c[nH]cn1)C(=O)N[C@H](C(=O)N[C@H]1CCC[C@@H]1C(N)=O)[C@@H](C)O)[C@@H](C)CC
